Experimental data published in ChEMBL document CHEMBL1909046, “DrugMatrix in vitro pharmacology data”.

Legend:
[1] = biological target: T1, Type-2 angiotensin II receptor (Homo sapiens, UniProt P50052); type: cell-based; settings: cho-k1; note: in other assays of this panel Not Active means under 50% inhibition at 10 µM
T1 sequence (P50052 whole entry): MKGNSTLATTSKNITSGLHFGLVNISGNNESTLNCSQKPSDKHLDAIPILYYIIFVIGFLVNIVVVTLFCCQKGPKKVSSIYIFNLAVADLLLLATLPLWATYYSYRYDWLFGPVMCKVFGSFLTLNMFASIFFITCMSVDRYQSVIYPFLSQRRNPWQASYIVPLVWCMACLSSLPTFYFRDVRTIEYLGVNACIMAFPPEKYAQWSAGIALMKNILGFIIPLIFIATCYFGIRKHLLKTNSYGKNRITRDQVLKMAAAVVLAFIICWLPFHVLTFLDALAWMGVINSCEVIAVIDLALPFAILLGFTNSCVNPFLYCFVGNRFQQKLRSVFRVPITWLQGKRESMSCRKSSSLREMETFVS

[2] = biological target: Protein kinase C alpha type (Homo sapiens, UniProt P17252); type: cell-based; settings: sf9;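 note: inhibition of PKCalpha kinase activity measured in an enzyme assay with histone as the phosphorylation substrate; in other assays of this panel Not Active means under 50% inhibition at 10 µM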
[3] = biological target: Sigma non-opioid intracellular receptor 1 (Homo sapiens, UniProt Q99720); assay: DRUGMATRIX: Sigma1 radioligand binding (ligand: [3H] Haloperidol); type: cell membranes, Jurkat, Membrane; settings: jurkat; Not Active = under 50% inhibition at 10 µM
Sigma non-opioid intracellular receptor 1, sequence (Q99720 whole entry): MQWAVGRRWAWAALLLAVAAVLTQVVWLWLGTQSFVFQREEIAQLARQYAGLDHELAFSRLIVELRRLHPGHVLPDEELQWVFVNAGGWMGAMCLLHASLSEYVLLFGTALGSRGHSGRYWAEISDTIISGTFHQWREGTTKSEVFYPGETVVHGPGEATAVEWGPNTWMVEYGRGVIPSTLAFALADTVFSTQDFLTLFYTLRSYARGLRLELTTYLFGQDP

Cytochrome P450 1A2 = biological target: T2, Cytochrome P450 1A2 (Homo sapiens, UniProt P05177); settings: bti-tn-5b1-4; note: in other assays of this panel Not Active means under 50% inhibition at 10 µM
T2 sequence (P05177 whole entry): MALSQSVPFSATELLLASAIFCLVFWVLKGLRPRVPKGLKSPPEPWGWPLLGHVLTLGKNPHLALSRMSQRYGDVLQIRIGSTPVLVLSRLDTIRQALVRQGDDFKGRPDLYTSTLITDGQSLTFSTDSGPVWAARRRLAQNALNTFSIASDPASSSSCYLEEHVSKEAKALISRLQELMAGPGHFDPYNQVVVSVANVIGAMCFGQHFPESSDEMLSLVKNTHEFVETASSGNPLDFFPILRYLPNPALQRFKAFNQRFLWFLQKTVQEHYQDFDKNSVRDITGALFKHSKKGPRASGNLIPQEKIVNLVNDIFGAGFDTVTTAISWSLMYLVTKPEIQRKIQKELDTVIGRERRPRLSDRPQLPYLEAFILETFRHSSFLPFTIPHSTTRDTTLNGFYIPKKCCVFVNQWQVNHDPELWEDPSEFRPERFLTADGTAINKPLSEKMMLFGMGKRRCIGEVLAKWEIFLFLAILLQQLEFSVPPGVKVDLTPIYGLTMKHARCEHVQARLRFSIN

[4] = DRUGMATRIX: Serotonin (5-Hydroxytryptamine) 5-HT3 radioligand binding (ligand: [3H] GR-65630); type: cell membranes, Membrane; settings: hek293; Not Active = under 50% inhibition at 10 µM
Melanocortin receptor 4 = Melanocortin receptor 4 (Homo sapiens, UniProt P32245); type: cell membranes, HEK293, Membrane; settings: hek293; note: in other assays of this panel Not Active means under 50% inhibition at 10 µM
Melanocortin receptor 4, sequence (P32245 whole entry): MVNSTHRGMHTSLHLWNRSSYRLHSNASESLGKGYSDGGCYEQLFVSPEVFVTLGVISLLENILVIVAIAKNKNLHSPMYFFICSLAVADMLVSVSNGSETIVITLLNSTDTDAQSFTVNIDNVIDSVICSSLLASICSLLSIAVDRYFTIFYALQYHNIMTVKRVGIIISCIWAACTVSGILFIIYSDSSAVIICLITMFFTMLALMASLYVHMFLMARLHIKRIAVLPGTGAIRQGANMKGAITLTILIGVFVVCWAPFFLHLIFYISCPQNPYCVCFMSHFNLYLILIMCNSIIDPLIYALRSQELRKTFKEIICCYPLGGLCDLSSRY

[5] = biological target: Tyrosine-protein kinase Lck (Homo sapiens, UniProt P06239); assay: DRUGMATRIX: Protein Tyrosine Kinase, LCK enzyme inhibition (substrate: Poly(Glu:Tyr)); type: cell-based, Insect cells; settings: insect cells; Not Active = under 50% inhibition at 10 µM
Tyrosine-protein kinase Lck, sequence (P06239 whole entry): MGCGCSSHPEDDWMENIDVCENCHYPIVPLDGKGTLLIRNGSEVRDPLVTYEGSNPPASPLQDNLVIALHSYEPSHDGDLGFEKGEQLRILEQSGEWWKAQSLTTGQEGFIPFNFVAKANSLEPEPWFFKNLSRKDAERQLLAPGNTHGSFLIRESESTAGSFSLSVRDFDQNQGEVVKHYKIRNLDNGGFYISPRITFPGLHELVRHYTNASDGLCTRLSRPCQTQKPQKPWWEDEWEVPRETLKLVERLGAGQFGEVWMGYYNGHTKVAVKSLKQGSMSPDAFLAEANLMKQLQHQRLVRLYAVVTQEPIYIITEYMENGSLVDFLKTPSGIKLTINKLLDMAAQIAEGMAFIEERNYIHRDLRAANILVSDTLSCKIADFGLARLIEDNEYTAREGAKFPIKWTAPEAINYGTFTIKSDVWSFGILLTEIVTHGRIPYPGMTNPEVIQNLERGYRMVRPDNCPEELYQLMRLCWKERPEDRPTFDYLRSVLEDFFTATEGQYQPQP

COC(=O)CCc1ccc(OCC(O)CNC(C)C)cc1 (stereo unspecified) [ESMOLOL]
Not Active: IC50 [1] | IC50 [2] | IC50 [3] | IC50 (Cytochrome P450 1A2) | Ki (Cytochrome P450 1A2) | IC50 [4] | Ki [4] | IC50 (Melanocortin receptor 4) | IC50 [5]

CCC1(C)CC(=O)NC1=O (stereo unspecified) [ETHOSUXIMIDE]
Not Active: IC50 [1] | IC50 [2] | IC50 [3] | IC50 (Cytochrome P450 1A2) | Ki (Cytochrome P450 1A2) | IC50 [4] | Ki [4] | IC50 (Melanocortin receptor 4) | IC50 [5]

C#C[C@]1(OC(C)=O)CC[C@H]2[C@@H]3CCC4=C[C@@H](OC(C)=O)CC[C@@H]4[C@H]3CC[C@@]21C [ETHYNODIOL DIACETATE]
Not Active: IC50 [1] | IC50 [2] | IC50 [3] | IC50 (Cytochrome P450 1A2) | Ki (Cytochrome P450 1A2) | IC50 [4] | Ki [4] | IC50 (Melanocortin receptor 4) | IC50 [5]

C=CCc1ccc(O)c(OC)c1 [EUGENOL]
Not Active: IC50 [1] | IC50 [2] | IC50 [3] | IC50 (Cytochrome P450 1A2) | Ki (Cytochrome P450 1A2) | IC50 [4] | Ki [4] | IC50 (Melanocortin receptor 4) | IC50 [5]

CC(C(=O)O)c1cccc(Oc2ccccc2)c1 (stereo unspecified) [FENOPROFEN]
Not Active: IC50 [1] | IC50 [2] | IC50 [3] | IC50 (Cytochrome P450 1A2) | Ki (Cytochrome P450 1A2) | IC50 [4] | Ki [4] | IC50 (Melanocortin receptor 4) | IC50 [5]

CC(C)(C)NC(=O)[C@H]1CC[C@H]2[C@@H]3CC[C@H]4NC(=O)C=C[C@]4(C)[C@H]3CC[C@]12C [FINASTERIDE]
Not Active: IC50 [1] | IC50 [2] | IC50 [3] | IC50 (Cytochrome P450 1A2) | Ki (Cytochrome P450 1A2) | IC50 [4] | Ki [4] | IC50 (Melanocortin receptor 4) | IC50 [5]

Nc1ccn([C@@H]2O[C@H](CO)[C@@H](O)C2(F)F)c(=O)n1 [GEMCITABINE]
Not Active: IC50 [1] | IC50 [2] | IC50 [3] | IC50 (Cytochrome P450 1A2) | Ki (Cytochrome P450 1A2) | IC50 [4] | Ki [4] | IC50 (Melanocortin receptor 4) | IC50 [5]

N=C(N)NC(=O)Cc1c(Cl)cccc1Cl [GUANFACINE]
Not Active: IC50 [1] | IC50 [2] | IC50 [3] | IC50 (Cytochrome P450 1A2) | Ki (Cytochrome P450 1A2) | IC50 [4] | Ki [4] | IC50 (Melanocortin receptor 4) | IC50 [5]

NNc1nncc2ccccc12 [HYDRALAZINE]
Not Active: IC50 [1] | IC50 [2] | IC50 [3] | IC50 (Cytochrome P450 1A2) | Ki (Cytochrome P450 1A2) | IC50 [4] | Ki [4] | IC50 (Melanocortin receptor 4) | IC50 [5]

COC1=C(OC)C(=O)C(CCCCCCCCCCO)=C(C)C1=O [IDEBENONE]
Not Active: IC50 [1] | IC50 [2] | IC50 [3] | IC50 (Cytochrome P450 1A2) | Ki (Cytochrome P450 1A2) | IC50 [4] | Ki [4] | IC50 (Melanocortin receptor 4) | IC50 [5]

CC(C)NNC(=O)c1ccncc1 [IPRONIAZID]
Not Active: IC50 [1] | IC50 [2] | IC50 [3] | IC50 (Cytochrome P450 1A2) | Ki (Cytochrome P450 1A2) | IC50 [4] | Ki [4] | IC50 (Melanocortin receptor 4) | IC50 [5]

Cc1c(OCC(F)(F)F)ccnc1C[S+]([O-])c1nc2ccccc2[nH]1 (stereo unspecified) [LANSOPRAZOLE]
Not Active: IC50 [1] | IC50 [2] | IC50 [3] | IC50 (Cytochrome P450 1A2) | Ki (Cytochrome P450 1A2) | IC50 [4] | Ki [4] | IC50 (Melanocortin receptor 4) | IC50 [5]

COc1ccc2[nH]cc(CCNC(C)=O)c2c1 [MELATONIN]
Not Active: IC50 [1] | IC50 [2] | IC50 [3] | IC50 (Cytochrome P450 1A2) | Ki (Cytochrome P450 1A2) | IC50 [4] | Ki [4] | IC50 (Melanocortin receptor 4) | IC50 [5]

NC(=O)C[S+]([O-])C(c1ccccc1)c1ccccc1 (stereo unspecified) [MODAFINIL]
Not Active: IC50 [1] | IC50 [2] | IC50 [3] | IC50 (Cytochrome P450 1A2) | Ki (Cytochrome P450 1A2) | IC50 [4] | Ki [4] | IC50 (Melanocortin receptor 4) | IC50 [5]

CCN(CC)CCOCCC1=CCC2CC1C2(C)C (stereo unspecified) [MYRTECAINE]
Not Active: IC50 [1] | IC50 [2] | IC50 [3] | IC50 (Cytochrome P450 1A2) | Ki (Cytochrome P450 1A2) | IC50 [4] | Ki [4] | IC50 (Melanocortin receptor 4) | IC50 [5]

O=C(O)c1cccnc1Nc1cccc(C(F)(F)F)c1 [NIFLUMIC ACID]
Not Active: IC50 [1] | IC50 [2] | IC50 [3] | IC50 (Cytochrome P450 1A2) | Ki (Cytochrome P450 1A2) | IC50 [4] | Ki [4] | IC50 (Melanocortin receptor 4) | IC50 [5]

O=C(N/N=C/c1ccc([N+](=O)[O-])o1)c1cc([N+](=O)[O-])cc([N+](=O)[O-])c1O [NIFURSOL]
Not Active: IC50 [1] | IC50 [2] | IC50 [3] | IC50 (Cytochrome P450 1A2) | Ki (Cytochrome P450 1A2) | IC50 [4] | Ki [4] | IC50 (Melanocortin receptor 4) | IC50 [5]

COC(=O)Nc1nc2ccc(C(=O)c3cccs3)cc2[nH]1 [NOCODAZOLE]
Not Active: IC50 [1] | IC50 [2] | IC50 [3] | IC50 (Cytochrome P450 1A2) | Ki (Cytochrome P450 1A2) | IC50 [4] | Ki [4] | IC50 (Melanocortin receptor 4) | IC50 [5]

C#CC1(O)CC[C@H]2[C@@H]3CCC4=CC(=O)CC[C@@H]4[C@H]3CC[C@@]21CC (stereo partly specified) [NORGESTREL]
Not Active: IC50 [1] | IC50 [2] | IC50 [3] | IC50 (Cytochrome P450 1A2) | Ki (Cytochrome P450 1A2) | IC50 [4] | Ki [4] | IC50 (Melanocortin receptor 4) | IC50 [5]
